This is an account of results in PMC4643674 (Journal of medicinal chemistry, 2013).

One data set deals with GluA3 (Rattus norvegicus, UniProt P19492). Kind of data set: off-target two-electrode voltage clamp, GluA3. The class given is cell-based. The following applies: read-out: ITEST / ICONTROL (mean ± SEM, %). In general terms: In two-electrode clamp one electrode senses voltage and the other passes current.
A further data set has as its target GluK1 (Rattus norvegicus, UniProt P22756). Briefly: off-target two-electrode voltage clamp, GluK1. The class given is cell-based. The following applies: read-out: ITEST / ICONTROL (mean ± SEM, %).
Data set [1] has as its system 42 different ion channels, G-protein coupled receptors, and transporters. Kind of data set: NIMH PDSP primary binding assay. The following applies: 5 µM compound.
The next data set can be described thus: plasma stability, human. The class given is in vitro ADME. The following applies: two-hour time-course, Figure S2.
Another data set is described as follows: plasma stability, rat. The class given is in vitro ADME. The following applies: two-hour time-course, Figure S2.
A further data set in a line: plasma stability, mouse. The class given is in vitro ADME. The following applies: two-hour time-course, Figure S2.
The target in data set [2] is GluN1/GluN2D (Rattus norvegicus, UniProt Q62645). The class given is cell-based.
In a further data set the test system is NMDA receptor subtypes. Kind of data set: two-electrode voltage clamp, activity statements without named subtype. The class given is cell-based. The following applies: receptor subtype not named.
The test system of a further data set is P-gp (MDR1). Briefly: MDR1-MDCK permeability assay. The class given is in vitro ADME, canine. The following applies: dog; for Papp A→B at 120 min, 5 µM / Papp B→A at 120 min, 5 µM: MDCK-MDR1, pH 7.4, Papp; for recovery at 120 min, 5 µM: MDCK-MDR1, pH 7.4, Recovery (%).
The nature of data set [3]: human liver microsomal stability. The class given is in vitro ADME. (In general: Liver microsomes are vesicles of endoplasmic reticulum, rich in cytochrome P450 enzymes.)
Data set [4] has as its system GluN2D receptor mutants (Q801Y, L705F and A752V). Briefly: inhibition of mutant GluN2D receptors. The class given is cell-based. The following applies: mutants vs wild type GluN2D; Figure S1.
The next data set has as its system MDR1-MDCK. Briefly: MDR1-MDCK permeability assay. The class given is in vitro ADME, canine. The following applies: A-to-B; 5 µM; 120 minutes.
In another data set the target is GluN1/GluN2A (Rattus norvegicus, UniProt P35439+Q00959). The class given is cell-based.
The target of the next data set is GluN1/GluN2B (Rattus norvegicus, UniProt P35439+Q00960). The class given is cell-based.
The target in another data set is GluN1/GluN2C (Rattus norvegicus, UniProt P35439+Q00961). The class given is cell-based.
Data set [5] concerns the target GluN1/GluN2D (Rattus norvegicus, UniProt P35439+Q62645). The class given is cell-based.
The mark [6] stands for this setting: human, liver microsomes, pH 7.4.

Bounds are passed on as bounds.

GluN1/GluN2D (Rattus norvegicus, UniProt Q62645), sequence (Q62645 28-1323, other chains not shown): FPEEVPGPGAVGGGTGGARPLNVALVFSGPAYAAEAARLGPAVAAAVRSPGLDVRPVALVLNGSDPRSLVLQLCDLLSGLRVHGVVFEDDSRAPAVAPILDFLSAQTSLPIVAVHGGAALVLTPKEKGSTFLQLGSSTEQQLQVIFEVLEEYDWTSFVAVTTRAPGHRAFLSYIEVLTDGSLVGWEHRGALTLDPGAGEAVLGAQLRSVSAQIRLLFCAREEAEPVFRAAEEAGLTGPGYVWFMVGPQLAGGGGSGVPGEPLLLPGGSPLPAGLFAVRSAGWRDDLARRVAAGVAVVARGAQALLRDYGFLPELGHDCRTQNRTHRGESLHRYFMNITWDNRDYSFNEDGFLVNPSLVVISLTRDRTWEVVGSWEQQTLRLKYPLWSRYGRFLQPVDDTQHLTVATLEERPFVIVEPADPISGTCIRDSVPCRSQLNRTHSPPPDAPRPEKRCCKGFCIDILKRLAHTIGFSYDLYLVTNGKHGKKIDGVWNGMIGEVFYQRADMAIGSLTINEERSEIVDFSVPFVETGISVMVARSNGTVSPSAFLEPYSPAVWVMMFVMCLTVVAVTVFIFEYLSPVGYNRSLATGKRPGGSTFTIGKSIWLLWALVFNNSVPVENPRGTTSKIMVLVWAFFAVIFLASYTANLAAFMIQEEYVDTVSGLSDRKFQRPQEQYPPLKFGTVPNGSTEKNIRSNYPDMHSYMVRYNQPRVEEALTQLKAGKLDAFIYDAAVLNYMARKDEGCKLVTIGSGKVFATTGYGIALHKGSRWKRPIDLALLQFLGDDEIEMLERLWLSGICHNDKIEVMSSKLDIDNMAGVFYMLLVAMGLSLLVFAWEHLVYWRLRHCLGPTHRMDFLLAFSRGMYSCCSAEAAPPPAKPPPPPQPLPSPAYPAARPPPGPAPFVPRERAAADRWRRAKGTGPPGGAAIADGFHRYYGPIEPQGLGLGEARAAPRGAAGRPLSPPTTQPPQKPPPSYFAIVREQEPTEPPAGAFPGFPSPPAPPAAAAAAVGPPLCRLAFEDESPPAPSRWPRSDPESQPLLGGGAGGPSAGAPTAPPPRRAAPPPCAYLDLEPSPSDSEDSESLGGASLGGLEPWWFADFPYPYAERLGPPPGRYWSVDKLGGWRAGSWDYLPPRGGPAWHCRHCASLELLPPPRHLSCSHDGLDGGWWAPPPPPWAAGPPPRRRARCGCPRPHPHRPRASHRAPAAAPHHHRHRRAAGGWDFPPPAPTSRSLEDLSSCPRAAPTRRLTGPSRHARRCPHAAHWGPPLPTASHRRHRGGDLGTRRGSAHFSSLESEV
GluN1/GluN2C, sequence (Q00961 20-1237, other chains not shown): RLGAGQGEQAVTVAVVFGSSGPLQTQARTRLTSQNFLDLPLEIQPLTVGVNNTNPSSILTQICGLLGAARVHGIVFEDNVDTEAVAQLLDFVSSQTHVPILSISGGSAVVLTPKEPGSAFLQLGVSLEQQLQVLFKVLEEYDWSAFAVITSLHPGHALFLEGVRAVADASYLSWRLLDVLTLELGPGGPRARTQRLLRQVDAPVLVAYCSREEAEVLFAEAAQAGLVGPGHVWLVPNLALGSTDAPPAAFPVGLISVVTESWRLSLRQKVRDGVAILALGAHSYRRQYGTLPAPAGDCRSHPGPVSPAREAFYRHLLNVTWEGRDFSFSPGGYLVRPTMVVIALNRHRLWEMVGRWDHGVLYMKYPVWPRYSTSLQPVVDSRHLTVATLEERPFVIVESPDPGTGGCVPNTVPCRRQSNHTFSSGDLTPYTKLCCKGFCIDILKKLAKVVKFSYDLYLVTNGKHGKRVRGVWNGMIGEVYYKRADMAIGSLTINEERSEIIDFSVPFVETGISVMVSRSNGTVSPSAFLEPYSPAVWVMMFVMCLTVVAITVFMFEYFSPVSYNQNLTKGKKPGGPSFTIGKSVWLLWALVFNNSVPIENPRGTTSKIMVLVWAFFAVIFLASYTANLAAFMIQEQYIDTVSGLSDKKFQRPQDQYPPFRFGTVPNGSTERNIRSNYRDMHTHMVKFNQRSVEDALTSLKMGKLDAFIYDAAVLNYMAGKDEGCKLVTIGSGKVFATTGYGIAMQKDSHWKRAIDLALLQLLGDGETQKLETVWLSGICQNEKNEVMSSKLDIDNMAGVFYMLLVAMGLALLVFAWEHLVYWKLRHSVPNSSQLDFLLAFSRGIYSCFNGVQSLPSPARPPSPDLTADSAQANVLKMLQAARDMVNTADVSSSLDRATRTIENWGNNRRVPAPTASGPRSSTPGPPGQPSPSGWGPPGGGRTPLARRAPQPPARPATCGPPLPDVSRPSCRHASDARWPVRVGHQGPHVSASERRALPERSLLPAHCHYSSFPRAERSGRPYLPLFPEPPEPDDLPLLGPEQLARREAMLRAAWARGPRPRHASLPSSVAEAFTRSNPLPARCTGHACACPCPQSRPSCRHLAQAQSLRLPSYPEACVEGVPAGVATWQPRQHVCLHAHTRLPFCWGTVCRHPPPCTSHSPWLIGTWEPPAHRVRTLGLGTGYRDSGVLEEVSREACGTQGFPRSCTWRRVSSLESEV
GluN1/GluN2A, sequence (Q00959 23-1464, other chains not shown): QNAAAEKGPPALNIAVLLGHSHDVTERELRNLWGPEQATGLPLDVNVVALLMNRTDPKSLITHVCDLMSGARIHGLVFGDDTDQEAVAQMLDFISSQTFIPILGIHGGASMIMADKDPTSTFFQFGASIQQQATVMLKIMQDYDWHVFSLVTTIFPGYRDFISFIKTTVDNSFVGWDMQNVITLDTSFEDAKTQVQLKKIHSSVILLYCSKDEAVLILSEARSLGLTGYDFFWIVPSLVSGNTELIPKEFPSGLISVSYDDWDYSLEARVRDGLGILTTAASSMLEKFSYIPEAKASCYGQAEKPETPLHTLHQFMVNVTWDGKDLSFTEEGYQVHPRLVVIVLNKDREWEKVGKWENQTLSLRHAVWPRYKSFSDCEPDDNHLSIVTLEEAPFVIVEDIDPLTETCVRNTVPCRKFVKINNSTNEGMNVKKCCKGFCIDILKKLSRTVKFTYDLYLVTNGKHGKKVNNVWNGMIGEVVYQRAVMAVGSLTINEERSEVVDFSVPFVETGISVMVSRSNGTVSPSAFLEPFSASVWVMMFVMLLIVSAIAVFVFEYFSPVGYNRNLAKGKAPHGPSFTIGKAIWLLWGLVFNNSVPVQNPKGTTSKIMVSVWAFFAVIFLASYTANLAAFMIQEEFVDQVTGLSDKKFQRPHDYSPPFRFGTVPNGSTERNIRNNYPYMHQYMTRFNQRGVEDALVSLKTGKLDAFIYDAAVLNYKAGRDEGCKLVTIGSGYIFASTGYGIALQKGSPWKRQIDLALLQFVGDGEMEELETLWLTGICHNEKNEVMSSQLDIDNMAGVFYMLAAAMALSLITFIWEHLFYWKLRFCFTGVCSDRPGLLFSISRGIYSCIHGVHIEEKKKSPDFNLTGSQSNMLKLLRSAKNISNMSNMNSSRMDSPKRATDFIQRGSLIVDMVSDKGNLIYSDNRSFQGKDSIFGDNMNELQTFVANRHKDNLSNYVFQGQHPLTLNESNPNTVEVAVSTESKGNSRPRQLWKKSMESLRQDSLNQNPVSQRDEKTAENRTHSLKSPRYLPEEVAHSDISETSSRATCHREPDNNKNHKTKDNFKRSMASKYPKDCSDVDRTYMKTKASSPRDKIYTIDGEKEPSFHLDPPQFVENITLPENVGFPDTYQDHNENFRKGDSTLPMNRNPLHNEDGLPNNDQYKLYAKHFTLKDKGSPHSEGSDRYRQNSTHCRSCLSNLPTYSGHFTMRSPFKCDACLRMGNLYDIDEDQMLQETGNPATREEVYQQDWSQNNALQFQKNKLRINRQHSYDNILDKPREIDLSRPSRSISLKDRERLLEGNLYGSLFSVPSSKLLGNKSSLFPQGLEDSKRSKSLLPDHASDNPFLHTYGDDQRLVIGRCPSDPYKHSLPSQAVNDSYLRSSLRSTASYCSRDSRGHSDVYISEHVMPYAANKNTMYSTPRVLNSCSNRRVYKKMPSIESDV
GluK1, sequence (P22756 31-949): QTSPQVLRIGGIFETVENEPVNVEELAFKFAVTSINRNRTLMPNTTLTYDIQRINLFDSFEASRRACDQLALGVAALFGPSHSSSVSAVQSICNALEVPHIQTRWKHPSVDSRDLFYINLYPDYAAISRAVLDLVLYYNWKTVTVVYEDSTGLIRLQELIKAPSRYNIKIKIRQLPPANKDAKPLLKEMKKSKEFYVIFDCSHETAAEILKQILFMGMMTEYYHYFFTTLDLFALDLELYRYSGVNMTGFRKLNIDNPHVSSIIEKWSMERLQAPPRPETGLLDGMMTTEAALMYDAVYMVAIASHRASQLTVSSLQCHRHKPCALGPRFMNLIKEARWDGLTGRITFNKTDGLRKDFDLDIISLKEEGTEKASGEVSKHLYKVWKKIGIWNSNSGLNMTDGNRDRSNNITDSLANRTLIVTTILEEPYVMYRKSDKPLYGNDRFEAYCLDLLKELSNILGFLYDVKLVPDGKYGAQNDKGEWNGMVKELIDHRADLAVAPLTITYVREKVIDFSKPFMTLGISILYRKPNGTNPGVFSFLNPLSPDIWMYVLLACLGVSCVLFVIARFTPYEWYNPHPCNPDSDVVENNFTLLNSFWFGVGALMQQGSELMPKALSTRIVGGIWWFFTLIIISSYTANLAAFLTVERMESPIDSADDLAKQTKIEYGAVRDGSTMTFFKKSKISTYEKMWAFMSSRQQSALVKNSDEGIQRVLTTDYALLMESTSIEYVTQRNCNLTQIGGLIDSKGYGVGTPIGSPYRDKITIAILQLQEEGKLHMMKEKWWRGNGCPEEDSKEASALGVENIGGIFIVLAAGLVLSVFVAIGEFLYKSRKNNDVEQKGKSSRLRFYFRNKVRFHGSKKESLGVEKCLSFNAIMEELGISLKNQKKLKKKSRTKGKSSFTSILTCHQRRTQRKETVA
GluN1/GluN2D (Rattus norvegicus, UniProt P35439+Q62645), sequence (Q62645 28-1323, other chains not shown): as the sequence (Q62645 28-1323, other chains not shown) above

For the compound `O=C(O)/C=C/C(=O)N1N=C(c2c(-c3ccc(Br)cc3)c3ccccc3[nH]c2=O)CC1c1ccc(Cl)cc1` (stereo not drawn) [Compound 58, (E)-4-{3-[4-(4-Bromophenyl)-2-oxo-1,2-dihydroquinolin-3-yl]-5-(4-chlorophenyl)-4,5-dihydro-1H-pyrazol-1-yl}-4-oxobut-2-enoic acid], the remaining activity at 3 µM on GluA3 was found to be 100 ± 1.1%; on GluK1 it was 100 ± 4.4%. For the same compound, the “effect in primary binding assay” value in [1] is given as “minimal effect”. Further, the plasma stability entry in “plasma stability, human” is listed as “minimal degradation”; in the data set “plasma stability, rat”, “minimal degradation”; in “plasma stability, mouse”, “minimal degradation”.
`O=C(O)CCC(=O)N1N=C(c2c(-c3ccc(Cl)cc3)c3ccccc3[nH]c2=O)C[C@H]1c1ccc(Cl)cc1` [Compound 69]: the “selectivity over other NMDA receptor subunits” value at GluN1/GluN2D [2] (GluN2D/GluN2C vs other subunits) is “over 70 fold”. In addition, the “fold more potent at GluN2D-containing receptors than the R-enantiomer, 70” value at GluN1/GluN2D [2] (S-enantiomer vs R-enantiomer) amounted to 11 fold.
As usually defined, the Papp A→B is how fast a substance crosses the layer from the apical side. In general, Papp B→A refers to how fast a substance crosses the layer from the basolateral side. The microsomal CLint is the rate of metabolic loss divided by the concentration. Low values mean greater metabolic stability, high ones faster metabolism. One may read the fraction remaining as what is left of the initial amount, in per cent. Take `O=C(CCCF)N1N=C(c2c(-c3ccc(Cl)cc3)c3ccccc3[nH]c2=O)CC1c1ccc(Cl)cc1` (stereo not drawn) [Compound 68, 4-(4-Chlorophenyl)-3-[5-(4-chlorophenyl)-1-(4-fluorobutanoyl)-4,5-dihydro-1H-pyrazol-3-yl]quinolin-2(1H)-one]: the “activity (in words)” value with NMDA receptor subtypes is “inactive”. Further, the apical-to-basolateral permeability (Papp A→B) at 120 min, 5 µM with P-gp (MDR1) (determination 1, A-to-B) came out at 4.51 ×10⁻⁶ cm/s; in the data set on P-gp (MDR1) (determination 2, A-to-B) it was 3.24 ×10⁻⁶ cm/s. Besides, the Papp B→A at 120 min, 5 µM in the data set with P-gp (MDR1) (determination 1, B-to-A) was 9.32 ×10⁻⁶ cm/s; in the data set on P-gp (MDR1) (determination 2, B-to-A) it was 9.72 ×10⁻⁶ cm/s. For the same compound, in data set [3] (setting [6]), the microsomal CLint at 1 µM came out at 40 µL/min/mg. The compound also came in with a share remaining at 0 h, 1 µM in data set [3] (setting [6]) of 100%.
For `O=C(O)CCC(=O)N1N=C(c2c(-c3ccc(Cl)cc3)c3ccccc3[nH]c2=O)CC1c1ccc(Cl)cc1` (stereo not drawn) [Compound 26, 4-{5-(4-Chlorophenyl)-3-[4-(4-chlorophenyl)-2-oxo-1,2-dihydroquinolin-3-yl]-4,5-dihydro-1H-pyrazol-1-yl}-4-oxobutanoic acid], the “effect of mutations on degree of inhibition” value in data set [4] is given as “significantly reduced the degree of inhibition”. In data set [1], the “effect in primary binding assay” value is on record as “minimal effect”. Also, the plasma stability result in the data set “plasma stability, human” is given as “minimal degradation”; in the data set “plasma stability, rat”, “minimal degradation”; in “plasma stability, mouse”, “minimal degradation”. In addition, the “Papp, Avg” value with MDR1-MDCK is recorded as 0.47 10^−6cm/s. Besides, the Papp B→A at 120 min, 5 µM amounted to 33.4 ×10⁻⁶ cm/s in the data set with P-gp (MDR1) (determination 1, B-to-A) and 17.9 ×10⁻⁶ cm/s with P-gp (MDR1) (determination 2, B-to-A). Further, in data set [3] (setting [6]), the microsomal CLint at 1 µM was under 20 µL/min/mg. The “degradation in human liver microsomes (in words)” value in data set [3] (over the 60 minute assay) is “minimal degradation”.
A word on the IC50: it is the concentration that gives 50% inhibition. The low end stands for greater potency in that assay, the high end for weaker potency in that assay. What is called efflux ratio is the permeability from basolateral to apical divided by that in the opposite direction, in the common usage. What is called half-life is the time in which the quantity being followed falls by half. Read a low half-life as fast loss. For the compound `O=C(CCCO)N1N=C(c2c(-c3ccc(Cl)cc3)c3ccccc3[nH]c2=O)CC1c1ccc(Cl)cc1` (stereo not drawn) [Compound 64, 4-(4-Chlorophenyl)-3-[5-(4-chlorophenyl)-1-(4-hydroxybutanoyl)-4,5-dihydro-1H-pyrazol-3-yl]quinolin-2(1H)-one], the 50% inhibitory concentration (IC50) came to 62 µM at GluN1/GluN2A, 33 µM on GluN1/GluN2B, 1.7 µM at GluN1/GluN2C and 0.69 µM at GluN1/GluN2D [5]. For the same compound, the plasma stability entry in “plasma stability, human” is given as “minimal degradation”; in “plasma stability, rat”, “minimal degradation”; in “plasma stability, mouse” it was “minimal degradation”. The efflux ratio at 120 min, 5 µM with P-gp (MDR1) (MDCK-MDR1, pH 7.4) was determined as 26. Further, the apparent permeability from basolateral to apical (Papp B→A) at 120 min, 5 µM came to 64.5 ×10⁻⁶ cm/s in the data set on P-gp (MDR1) (Avg, B-to-A); 66.2 ×10⁻⁶ cm/s in the data set with P-gp (MDR1) (determination 1, B-to-A); 62.7 ×10⁻⁶ cm/s with P-gp (MDR1) (determination 2, B-to-A). For the same compound, the apparent permeability from apical to basolateral (Papp A→B) at 120 min, 5 µM in the data set with P-gp (MDR1) (determination 1, A-to-B) came out at 2.45 ×10⁻⁶ cm/s; in the data set on P-gp (MDR1) (determination 2, A-to-B), 2.48 ×10⁻⁶ cm/s. Further, the recovery at 120 min, 5 µM with P-gp (MDR1) (A-to-B) worked out at 43%; in the data set on P-gp (MDR1) (B-to-A) it was 73%. This compound also came in with a half-life at 1 µM in data set [3] (setting [6]) of 13 min. This compound also displayed a microsomal CLint at 1 µM in data set [3] (setting [6]) of 110 µL/min/mg. For the same compound, the fraction remaining at 0 h, 1 µM in data set [3] (setting [6]) came to 100%. Also, in data set [3] (setting [6]), the amount remaining at 0.5 h, 1 µM came to 24%. The amount remaining at 1 h, 1 µM in [3] (setting [6]) is 6.5%.
